Data published in patent publication US7662222B2, “Method and use of nanoparticles to bind biocides in paints” (I-Tech AB, priority 2005, dated 2010).
Entries after “also recorded” stand apart in the source; their conditions may differ.

What was measured:
[1] = adsorption of biocides onto CuO and ZnO nanoparticles in o-xylene, non-adsorbed biocide by HPLC-UV; assay type: physicochemical; settings: biocide 50 mM
Protocol: To 50 ml of the solvent o-xylene, the biocide was added at a total concentration of 50 mM. Nano-particles (Sigma-Aldrich Sweden AB, Stockholm, Sweden) were then added in relevant concentrations according to the test protocol and after each addition the concentration of non-adsorbed Medetomidine (Orion Pharma, Helsinki, Finland) was measured with a standard HPLC-UV technique. The UV-absorbance maximum of Medetomidine was, from the literature, found to be 220 nm. Prior to the HPLC analysis the UV-absorbance maximum was investigated in order to verify the value given from the literature using a UV-spectrometer (GBC 920 UV/visible spectrometer, Scientific Equipments Ltd., Victoria, Australia).
The samples were analysed on a HPLC-UV system consisting of a Merck-Hitachi L-6200 pump (Merck-Hitachi, Darmstadt, Germany), a Supelco Discovery® (Sigma-Aldrich Sweden AB, Stockholm, Sweden) C18 (25 cm×4.6 mm, 5 m) column fitted with a prefilter (0.5 μm) and a Spectra-Physics Spectra 100 UV (Spectra-Physics Inc, Irvine Calif., USA) operating at 220 nm. The mobile phase was MilliQ-water:Acetonitrile (0.1% TFA v/v (mobile phase A): 0.1% TFA v/v (mobile phase B)) run over a gradient (6% B for two min then an increase up to 60% B in 15 min, a further increase up to 100% B in 3 min and then isocratic for 3 min before returning to the starting values in 2 min) at a flow rate of […]. The peak separation was monitored by UV (220 nm). Manual injections of 100 micro-liter were made and the data was collected and integrated using the Millenium software (version 3.20, 1999)(Waters Inc, Milford Mass., USA).

[2] = test system: barnacles; settings: reported pharmacological compounds; cited from earlier work
[3] = CuO (5 μm) instead of nanoparticle, o-xylene
Protocol: The different nanoparticles used (ZnO, CuO, Al2O3, MgO, TiO2, CO3O4) were bought from Sigma (Sigma-Aldrich Sweden AB, Stockholm, Sweden) and used without further purification. 50 ml of o-xylene was added to a beaker to which 50 mM of Medetomidine (Orion Pharma, Helsinki, Finland) was added. Nanoparticles were then added and after each addition the amount of free Medetomidine was measured with HPLC-UV (as in example 1 above).

| SMILES | adsorption of antifouling agent onto nanoparticles [1] | effect on attachment / settlement of barnacles [2] | Medetomidine adsorption onto micrometer sized particle [3] |
| --- | --- | --- | --- |
| Cc1cccc(C(C)c2cnc[nH]2)c1C (racemic) [Medetomidine, (S,R)-4(5)-[1-(2,3-dimethylphenyl)ethyl]-1H-imidazole] | Large fractions of Medetomidine are adsorbed already at low particle concentrations; also recorded: best adsorption | efficient inhibitor | negligible |
| CCCCCCCCn1sc(Cl)c(Cl)c1=O [SeaNine, 4,5-dichloro-2-n-octyl-3(2H)-isothiazolone] | exhibited adsorption |  |  |
| CC(C)C[C@H]1C(=O)N2CCC[C@H]2[C@]2(O)O[C@](NC(=O)[C@@H]3C=C4c5cccc6[nH]c(Br)c(c56)C[C@H]4N(C)C3)(C(C)C)C(=O)N12 [(+)-Bromocriptine] |  | inhibitory properties |  |
| O=C(c1ccc(F)cc1)C1CCN(CCn2c(=O)[nH]c3ccccc3c2=O)CC1 [Ketanserin] |  | inhibitory properties |  |
| CCCN1CCc2cccc3c2[C@H]1Cc1ccc(O)c(O)c1-3 [R (−)-NPA] |  | inhibitory properties |  |
| CN(C)C(=O)Nc1ccc(Cl)c(Cl)c1 [diuron, 3-(3,4-dichlorophenyl)-1,1-dimethylurea] | exhibited adsorption |  |  |
| CSc1nc(NC2CC2)nc(NC(C)(C)C)n1 [igarol, 2-methylthio-4-tert-butylamino-6-cyclopropylamino-s-triziane] | exhibited adsorption |  |  |
